In PubChem BioAssay (NCI):
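Tested at 5 concentrations; 48 h exposure; 96-well plates; endpoints linearly interpolated, else capped at highest concentration. Here, GI50 denotes the concentration required for 50% inhibition of growth. TGI: concentration producing complete growth inhibition.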

What was measured:
Assay in all cases: inhibition of tumour cell growth, NCI panel, 48 h
RXF 393 renal = tested on: RXF 393 renal
CAKI-1 renal = tested on: CAKI-1 renal
OVCAR-8 ovarian = tested on: OVCAR-8 ovarian
HS 578T breast = tested on: HS 578T breast
SF-268 CNS = tested on: SF-268 CNS
U251 CNS = tested on: U251 CNS
BT-549 breast = tested on: BT-549 breast
SK-OV-3 ovarian = tested on: SK-OV-3 ovarian
MOLT-4 leukemia = tested on: MOLT-4 leukemia
786-0 renal = tested on: 786-0 renal
SR leukemia = tested on: SR leukemia
K-562 leukemia = tested on: K-562 leukemia
SF-295 CNS = tested on: SF-295 CNS
NCI/ADR-RES ovarian = tested on: NCI/ADR-RES ovarian
EKVX NSCLC = tested on: EKVX NSCLC
SNB-19 CNS = tested on: SNB-19 CNS
NCI-H23 lung = tested on: NCI-H23 lung
CCRF-CEM leukemia = tested on: CCRF-CEM leukemia
TK-10 renal = tested on: TK-10 renal
ACHN renal = tested on: ACHN renal
RPMI-8226 leukemia = tested on: RPMI-8226 leukemia
SNB-75 CNS = tested on: SNB-75 CNS
HOP-62 NSCLC = tested on: HOP-62 NSCLC
SK-MEL-2 melanoma = tested on: SK-MEL-2 melanoma
COLO 205 colon = tested on: COLO 205 colon
SF-539 CNS = tested on: SF-539 CNS
M14 melanoma = tested on: M14 melanoma
A549 NSCLC = tested on: A549 NSCLC
MALME-3M melanoma = tested on: MALME-3M melanoma
SN12C renal = tested on: SN12C renal
UO-31 renal = tested on: UO-31 renal
OVCAR-4 ovarian = tested on: OVCAR-4 ovarian
KM12 colon = tested on: KM12 colon
LOX IMVI melanoma = tested on: LOX IMVI melanoma
SW-620 colon = tested on: SW-620 colon
MDA-MB-435 = tested on: MDA-MB-435
HCT-15 colon = tested on: HCT-15 colon
HOP-92 NSCLC = tested on: HOP-92 NSCLC
IGROV1 ovarian = tested on: IGROV1 ovarian
NCI-H226 lung = tested on: NCI-H226 lung
HCT-116 colon = tested on: HCT-116 colon
OVCAR-5 ovarian = tested on: OVCAR-5 ovarian
A498 renal = tested on: A498 renal
UACC-257 melanoma = tested on: UACC-257 melanoma
NCI-H460 lung = tested on: NCI-H460 lung
NCI-H522 lung = tested on: NCI-H522 lung
OVCAR-3 ovarian = tested on: OVCAR-3 ovarian
SK-MEL-28 melanoma = tested on: SK-MEL-28 melanoma
SK-MEL-5 melanoma = tested on: SK-MEL-5 melanoma
HT29 colon = tested on: HT29 colon
PC-3 prostate = tested on: PC-3 prostate
MDA-MB-231 breast = tested on: MDA-MB-231 breast
HL-60(TB) leukemia = tested on: HL-60(TB) leukemia
DU-145 prostate = tested on: DU-145 prostate
HCC-2998 colon = tested on: HCC-2998 colon
UACC-62 melanoma = tested on: UACC-62 melanoma
T-47D breast = tested on: T-47D breast
MCF7 breast = tested on: MCF7 breast

## CNC(=O)c1c(NC(=O)c2ccc(F)cc2F)sc2c1CCC(=O)C2
RXF 393 renal
  GI50: 182 nM
  TGI: 1730 nM
CAKI-1 renal
  GI50: 236 nM
  TGI: 1040 nM
OVCAR-8 ovarian
  GI50: 288 nM
  TGI: > 100000 nM
HS 578T breast
  GI50: 439 nM
  TGI: 5910 nM
SF-268 CNS
  GI50: 428 nM
  TGI: > 100000 nM
U251 CNS
  GI50: 288 nM
  TGI: > 100000 nM
BT-549 breast
  GI50: 345 nM
  TGI: 2860 nM
SK-OV-3 ovarian
  GI50: 2590 nM
  TGI: 9620 nM
MOLT-4 leukemia
  GI50: 230 nM
  TGI: > 100000 nM
786-0 renal
  GI50: 390 nM
  TGI: 13600 nM
SR leukemia
  GI50: 89 nM
  TGI: > 100000 nM
K-562 leukemia
  GI50: 133 nM
  TGI: > 100000 nM
SF-295 CNS
  GI50: 1310 nM
  TGI: 5710 nM
NCI/ADR-RES ovarian
  GI50: 265 nM
  TGI: > 100000 nM
EKVX NSCLC
  GI50: 253 nM
  TGI: > 100000 nM
SNB-19 CNS
  GI50: 440 nM
  TGI: > 52400 nM
NCI-H23 lung
  GI50: 251 nM
  TGI: > 100000 nM
CCRF-CEM leukemia
  GI50: 146 nM
  TGI: > 100000 nM
TK-10 renal
  GI50: 431 nM
  TGI: 17700 nM
ACHN renal
  GI50: 349 nM
  TGI: 1080 nM
RPMI-8226 leukemia
  GI50: 227 nM
  TGI: > 100000 nM
SNB-75 CNS
  GI50: 722 nM
  TGI: 3300 nM
HOP-62 NSCLC
  GI50: 1130 nM
  TGI: > 100000 nM

## CN1CCN(Cc2ccc(NC(=O)c3cncc(C#Cc4cnc5ccc(NCCO)nn45)c3)cc2C(F)(F)F)CC1
RXF 393 renal
  GI50: 590 nM
  TGI: 1350 nM
CAKI-1 renal
  GI50: 764 nM
  TGI: 3470 nM
SK-MEL-2 melanoma
  GI50: 131 nM
  TGI: 435 nM
COLO 205 colon
  GI50: 111 nM
  TGI: 306 nM
SF-539 CNS
  GI50: 61.6 nM
  TGI: 596 nM
M14 melanoma
  GI50: 231 nM
  TGI: 864 nM
A549 NSCLC
  GI50: 718 nM
  TGI: 4650 nM
MALME-3M melanoma
  GI50: 135 nM
  TGI: 635 nM
OVCAR-8 ovarian
  GI50: 698 nM
  TGI: 4050 nM
SN12C renal
  GI50: 172 nM
  TGI: 2630 nM
UO-31 renal
  GI50: 2000 nM
  TGI: 6880 nM
OVCAR-4 ovarian
  GI50: 378 nM
  TGI: 2100 nM
KM12 colon
  GI50: 5 nM
  TGI: 1300 nM
HS 578T breast
  GI50: 115 nM
  TGI: 863 nM
LOX IMVI melanoma
  GI50: 179 nM
  TGI: 769 nM
SW-620 colon
  GI50: 118 nM
  TGI: 580 nM
SF-268 CNS
  GI50: 207 nM
  TGI: 1110 nM
MDA-MB-435
  GI50: 123 nM
  TGI: 919 nM
HCT-15 colon
  GI50: 1650 nM
  TGI: 6490 nM
HOP-92 NSCLC
  GI50: 19 nM
  TGI: 87.4 nM
U251 CNS
  GI50: 609 nM
  TGI: 1450 nM
BT-549 breast
  GI50: 824 nM
  TGI: 1620 nM
SK-OV-3 ovarian
  GI50: 805 nM
  TGI: 3200 nM
MOLT-4 leukemia
  GI50: 141 nM
  TGI: 3860 nM
786-0 renal
  GI50: 853 nM
  TGI: 2030 nM
IGROV1 ovarian
  GI50: 239 nM
  TGI: 2440 nM
SR leukemia
  GI50: 58.4 nM
  TGI: 1360 nM
K-562 leukemia
  GI50: 5 nM
  TGI: 794 nM
SF-295 CNS
  GI50: 717 nM
  TGI: 4940 nM
NCI/ADR-RES ovarian
  GI50: 30100 nM
  TGI: 50000 nM
NCI-H226 lung
  GI50: 75.8 nM
  TGI: 1310 nM
EKVX NSCLC
  GI50: 673 nM
  TGI: 4010 nM
SNB-19 CNS
  GI50: 901 nM
  TGI: 3990 nM
HCT-116 colon
  GI50: 92.1 nM
  TGI: 675 nM
NCI-H23 lung
  GI50: 277 nM
  TGI: 1310 nM
OVCAR-5 ovarian
  GI50: 342 nM
  TGI: 4330 nM
A498 renal
  GI50: 385 nM
  TGI: 946 nM
CCRF-CEM leukemia
  GI50: 31 nM
  TGI: 17800 nM
UACC-257 melanoma
  GI50: 608 nM
  TGI: 2230 nM
NCI-H460 lung
  GI50: 209 nM
  TGI: 718 nM
NCI-H522 lung
  GI50: 187 nM
  TGI: 940 nM
TK-10 renal
  GI50: 1200 nM
  TGI: 2990 nM
OVCAR-3 ovarian
  GI50: 349 nM
  TGI: 2060 nM
ACHN renal
  GI50: 1700 nM
  TGI: 5860 nM
SK-MEL-28 melanoma
  GI50: 529 nM
  TGI: 1740 nM
SK-MEL-5 melanoma
  GI50: 797 nM
  TGI: 1830 nM
RPMI-8226 leukemia
  GI50: 1010 nM
  TGI: 2970 nM
SNB-75 CNS
  GI50: 87.4 nM
  TGI: 414 nM
HT29 colon
  GI50: 188 nM
  TGI: 1430 nM
PC-3 prostate
  GI50: 457 nM
  TGI: 3920 nM
MDA-MB-231 breast
  GI50: 79.5 nM
  TGI: 335 nM
HL-60(TB) leukemia
  GI50: 138 nM
  TGI: 609 nM
DU-145 prostate
  GI50: 486 nM
  TGI: 3470 nM
HCC-2998 colon
  GI50: 687 nM
  TGI: 3200 nM
HOP-62 NSCLC
  GI50: 324 nM
  TGI: 1420 nM
UACC-62 melanoma
  GI50: 532 nM
  TGI: 1620 nM
T-47D breast
  GI50: 603 nM
  TGI: 4220 nM
MCF7 breast
  GI50: 90.3 nM
  TGI: 787 nM
